Experimental data taken from patent publication US10005733B2, “N-(4-hydroxy-4-methyl-cyclohexyl)-4-phenyl-benzenesulfonamide and N-(4-hydroxy-4-methyl-cyclohexyl)-4-(2-pyridyl)-benzenesulfonamide compounds and their therapeutic use” (PIMCO 2664 LIMITED, priority 2014, dated 2018).

Legend:
[1] = system: IL-6 release from Thp1 macrophages; assay: Thp1 Macrophage IL-6 Release Assay (LPS-stimulated); assay type: cell-based; settings: Homo sapiens, THP-1, 18 h, 100 ng/mL LPS
From the text: Anti-inflammatory effects were further characterised by assessing the production of interleukin-6 (IL-6) by human Thp-1 derived macrophages stimulated with a pro-inflammatory stimulus bacterial lipopolysaccharide (LPS). LPS acts with a cell-surface receptor, Toll-like receptor-4 to activate the NFκB and IRF signalling pathways to produce IL-6. The reduction of IL-6 in this stimulated assay is indicative of anti-inflammatory effects with utility in the treatment of conditions in which IL-6 production is aberrant. In vitro potency of test compounds in human cells was determined by incubation with Thp1 macrophages and subsequent stimulation with an inflammatory stimulus (bacterial lipopolysaccharide (LPS)) followed by measurement of cellular interleukin-6 (IL-6) release. […] The following day, the cells were stimulated with phorbol myristic acid (PMA) at a final concentration of 200 nM to induce differentiation and maintained for 3 days. Test compounds were prepared as […] solutions in DMSO and then serially diluted in DMSO prior to dilution in culture medium. The diluted compounds were added to the cultures 1 hour prior to stimulation with 100 ng/mL LPS. Compounds were tested in triplicate in a 9 point concentration response curve at concentrations of 30, 10, 3, 1, 0.3, 0.1, 0.03, 0.01 and 0.001 μM Following an 18 hour incubation at 37° C./5% CO2, the cell culture medium was collected and assayed for human IL-6 levels using the human IL-6 duo-set ELISA kit (R&D Systems). The average results for each test compound (n=3) were expressed as a percent (%) of the average control value. The average values across the concentrations tested were then plotted and the IC50 for the inhibition of IL-6 was calculated by fitting the data to a 4-parameter IC50 equation using GraphPad Prism software for Windows (Graph Pad Software, San Diego Calif. USA) or Grafit version 5 (Erithacus Software). Each experiment was repeated twice and the data are presented as the mean IC50 from both experiments.

CYP2C19 = target: T1, CYP2C19 (Homo sapiens, UniProt P33261); assay: Human Cytochrome P450 Inhibition Assay (Bactosomes), CYP2C19; assay type: in vitro ADME; settings: recombinant Bactosomes, probe substrate, 10 minutes at 37° C.
T1 construct: purchased Cypex Ltd, Dundee, Scotland UK
Experimental: (§1) The ability of test compounds to inhibit five of the most relevant cytochrome P450 enzymes was measured by determination of the activity of cytochrome P450 enzymes in recombinant cytochrome preparations, called Bactosomes (Cypex Ltd, Dundee, Scotland UK DD2 1NH), in the presence of a specific probe substrate. Bactosomes are a highly efficient and cost-effective source of recombinant CYP450s which have a higher specific activity of enzyme compared to other sources, such as liver microsomes. […] The following CYP450 isoforms were assayed: CYP1A2, CYP2C9, CYP2C19, CYP2D6 and CYP3A4. The study of CYP450 inhibition potential in Bactosomes is accepted as a valuable model permitting rapid prediction of potential drug-drug interactions in vivo (see, e.g., Weaver et al., 2003).
(§2) Bactosomes were obtained from a commercial source (Cypex, Scotland, UK). Test compounds were incubated with Bactosomes at 6 concentrations. Samples were incubated for 10 minutes, after which the reaction was stopped and the samples analysed by LC-MS/MS Multiple Reaction Monitoring (MRM) for the presence/amount of substrate probe.
(§3) CYP450 enzymes (final protein 75 pmol/mL for CYP1A2; 12.5 pmol/mL for CYP2C19; and 25 pmol/mL for CYP2C9, 2D6 and 3A4), 0.1 M phosphate buffer pH 7.4, probe and test compound (final concentration 50, 15.8, 5, 1.58, 0.5 and 0.158 μM; diluted from 10 mM stock solution to give a final DMSO concentration of 1%) were pre-incubated at 37° C. for 5 minutes. The reaction was initiated by the addition of 20 μL of 10 mM NADPH in phosphate buffer. The final incubation volume was 200 μL. The following control inhibitors were used for each CYP450 inhibition assay: CYP1A2: α-naphthoflavone; CYP2C9: sulfaphenazole; CYP2C19: tranylcypromine; CYP2D6: quinidine; CYP3A4: ketoconazole.
(§4) Each compound was incubated for 10 minutes at 37° C. The reactions were stopped by the addition of methanol (final composition 1:1, aqueous: methanol). The incubation plates were shaken, chilled at […] for 2 hours, and centrifuged at 3500 rpm for 15 minutes at 4° C. to precipitate the protein.
(§5) IC50 values were determined by linear transformation within Microsoft Excel.

CYP1A2 = target: T2, CYP1A2 (Homo sapiens, UniProt P05177); assay: Human Cytochrome P450 Inhibition Assay (Bactosomes), CYP1A2; assay type: in vitro ADME; settings: recombinant Bactosomes, probe substrate, 10 minutes at 37° C.
T2 construct: purchased Cypex Ltd, Dundee, Scotland UK
T2 sequence (P05177 1-516): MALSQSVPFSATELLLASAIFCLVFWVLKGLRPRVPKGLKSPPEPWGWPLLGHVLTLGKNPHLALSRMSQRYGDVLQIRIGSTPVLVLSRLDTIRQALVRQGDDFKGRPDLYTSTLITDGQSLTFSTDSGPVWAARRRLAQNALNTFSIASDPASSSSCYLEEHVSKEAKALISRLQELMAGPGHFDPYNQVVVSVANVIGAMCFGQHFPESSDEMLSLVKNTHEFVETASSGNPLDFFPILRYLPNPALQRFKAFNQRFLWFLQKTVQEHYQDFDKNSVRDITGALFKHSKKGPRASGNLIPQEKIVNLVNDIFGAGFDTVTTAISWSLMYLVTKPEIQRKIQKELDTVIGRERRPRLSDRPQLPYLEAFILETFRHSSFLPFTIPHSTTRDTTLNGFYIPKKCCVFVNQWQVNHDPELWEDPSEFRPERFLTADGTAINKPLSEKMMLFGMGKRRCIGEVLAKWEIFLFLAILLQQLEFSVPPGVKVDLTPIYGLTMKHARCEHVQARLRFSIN
Experimental: as §1, §2, §3, §4, §5

CYP2D6 = target: T3, CYP2D6 (Homo sapiens, UniProt P10635); assay: Human Cytochrome P450 Inhibition Assay (Bactosomes), CYP2D6; assay type: in vitro ADME; settings: recombinant Bactosomes, probe substrate, 10 minutes at 37° C.
T3 construct: purchased Cypex Ltd, Dundee, Scotland UK
Experimental: as §1, §2, §3, §4, §5

CYP2C9 = target: T4, CYP2C9 (Homo sapiens, UniProt P11712); assay: Human Cytochrome P450 Inhibition Assay (Bactosomes), CYP2C9; assay type: in vitro ADME; settings: recombinant Bactosomes, probe substrate, 10 minutes at 37° C.
T4 construct: purchased Cypex Ltd, Dundee, Scotland UK
Experimental: as §1, §2, §3, §4, §5

CYP3A4 = target: T5, CYP3A4 (Homo sapiens, UniProt P08684); assay: Human Cytochrome P450 Inhibition Assay (Bactosomes), CYP3A4; assay type: in vitro ADME; settings: recombinant Bactosomes, probe substrate, 10 minutes at 37° C.
T5 construct: purchased Cypex Ltd, Dundee, Scotland UK
Experimental: as §1, §2, §3, §4, §5

[2] = footnote (1): Thp1 cells plated at 3 × 10^5 cells/well, Grafit
[3] = footnote (2): Thp1 cells plated at 1.7 × 10^5 cells/well, GraphPad Prism

T5 sequence (P08684 whole entry): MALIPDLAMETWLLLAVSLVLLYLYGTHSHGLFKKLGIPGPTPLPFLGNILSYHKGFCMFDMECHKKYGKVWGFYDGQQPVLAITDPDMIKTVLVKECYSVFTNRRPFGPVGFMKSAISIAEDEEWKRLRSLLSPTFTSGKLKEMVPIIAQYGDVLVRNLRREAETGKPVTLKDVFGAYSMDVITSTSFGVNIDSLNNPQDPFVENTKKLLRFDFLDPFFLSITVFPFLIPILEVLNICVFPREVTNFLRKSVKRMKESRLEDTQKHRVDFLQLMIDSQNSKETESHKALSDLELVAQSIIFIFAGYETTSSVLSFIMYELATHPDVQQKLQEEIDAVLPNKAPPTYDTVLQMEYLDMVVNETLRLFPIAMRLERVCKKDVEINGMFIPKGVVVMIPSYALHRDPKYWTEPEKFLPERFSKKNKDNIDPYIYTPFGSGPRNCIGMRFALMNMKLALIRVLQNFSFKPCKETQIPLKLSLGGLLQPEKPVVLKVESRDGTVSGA
T4 sequence (P11712 whole entry): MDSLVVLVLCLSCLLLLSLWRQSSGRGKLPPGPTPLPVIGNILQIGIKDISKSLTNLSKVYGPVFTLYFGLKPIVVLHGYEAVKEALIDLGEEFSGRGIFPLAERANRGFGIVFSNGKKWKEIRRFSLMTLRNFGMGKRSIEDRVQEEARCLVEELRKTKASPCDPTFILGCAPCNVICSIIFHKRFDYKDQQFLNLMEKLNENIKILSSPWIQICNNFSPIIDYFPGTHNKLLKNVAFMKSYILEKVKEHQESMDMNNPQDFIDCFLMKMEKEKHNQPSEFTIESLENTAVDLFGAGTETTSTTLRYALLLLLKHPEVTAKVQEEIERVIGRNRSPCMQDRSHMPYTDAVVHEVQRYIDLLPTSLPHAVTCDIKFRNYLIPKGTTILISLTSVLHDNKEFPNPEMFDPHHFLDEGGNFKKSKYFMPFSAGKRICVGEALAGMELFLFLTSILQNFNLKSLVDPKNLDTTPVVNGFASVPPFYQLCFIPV
T3 sequence (P10635 whole entry): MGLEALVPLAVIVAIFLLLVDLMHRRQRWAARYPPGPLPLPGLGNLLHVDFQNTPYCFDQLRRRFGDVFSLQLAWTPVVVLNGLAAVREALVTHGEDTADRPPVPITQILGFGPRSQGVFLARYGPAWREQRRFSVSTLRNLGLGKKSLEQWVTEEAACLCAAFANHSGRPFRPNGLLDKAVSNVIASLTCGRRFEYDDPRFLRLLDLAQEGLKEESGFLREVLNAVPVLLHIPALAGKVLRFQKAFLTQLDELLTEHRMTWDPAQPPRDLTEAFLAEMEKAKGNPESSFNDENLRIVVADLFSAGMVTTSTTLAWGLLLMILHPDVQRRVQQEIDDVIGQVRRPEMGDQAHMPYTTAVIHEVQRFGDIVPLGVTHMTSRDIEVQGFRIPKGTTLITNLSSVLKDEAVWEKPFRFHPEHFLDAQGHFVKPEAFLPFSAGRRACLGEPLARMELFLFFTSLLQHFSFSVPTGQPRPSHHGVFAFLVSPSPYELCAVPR
T1 sequence (P33261 whole entry): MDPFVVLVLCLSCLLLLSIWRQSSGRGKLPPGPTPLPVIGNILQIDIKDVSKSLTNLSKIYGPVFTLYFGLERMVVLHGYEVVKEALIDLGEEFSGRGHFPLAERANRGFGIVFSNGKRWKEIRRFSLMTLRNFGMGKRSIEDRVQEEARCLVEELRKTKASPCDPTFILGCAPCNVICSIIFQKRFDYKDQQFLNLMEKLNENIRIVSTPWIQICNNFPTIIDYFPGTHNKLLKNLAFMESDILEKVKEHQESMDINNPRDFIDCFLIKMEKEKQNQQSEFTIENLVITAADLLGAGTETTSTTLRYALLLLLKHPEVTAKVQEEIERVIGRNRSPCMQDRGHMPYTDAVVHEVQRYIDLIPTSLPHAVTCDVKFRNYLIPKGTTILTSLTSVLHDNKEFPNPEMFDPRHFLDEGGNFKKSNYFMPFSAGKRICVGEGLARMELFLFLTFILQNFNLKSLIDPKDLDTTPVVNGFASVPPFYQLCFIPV

| SMILES | IC50 [1, 2] [µM] | IC50 [1, 3] [µM] | IC50 (CYP2C19) [µM] | IC50 (CYP1A2) [µM] | IC50 (CYP2D6) [µM] | IC50 (CYP2C9) [µM] | IC50 (CYP3A4) [µM] |
| --- | --- | --- | --- | --- | --- | --- | --- |
| C[C@]1(O)CC[C@H](NS(=O)(=O)c2ccc(-c3ccc(F)cc3F)cc2)CC1 [ABD900] | 0.09 | 0.11 |  |  |  |  |  |
| C[C@]1(O)CC[C@H](NS(=O)(=O)c2ccc(-c3ccc(C#N)cc3Cl)cc2)CC1 [HMC-C-09-A, 2′-Chloro-4′-cyano-N-((1r,4r)-4-hydroxy-4-methylcyclohexyl)-[1,1′-biphenyl]-4-sulfonamide] |  | 0.17 | > 50 | 23 | > 50 | 34 | 33 |
| C[C@]1(O)CC[C@H](NS(=O)(=O)c2ccc(-c3ncc(Cl)cc3C#N)cc2)CC1 [HMC-N-05-A, 4-(5-Chloro-3-cyanopyridin-2-yl)-N-((1r,4r)-4-hydroxy-4-methylcyclohexyl)benzenesulfonamide] |  | 0.3 | > 50 | 36 | > 50 | 27 | > 50 |
| C[C@]1(O)CC[C@H](NS(=O)(=O)c2ccc(-c3ccc(Cl)cc3C#N)c(F)c2)CC1 [HMC-C-08-A, 4′-Chloro-2′-cyano-2-fluoro-N-((1r,4r)-4-hydroxy-4-methylcyclohexyl)-[1,1′-biphenyl]-4-sulfonamide] |  | 0.16 | 30 | 27 | 19 | 6.7 | 29 |
| Cc1cc(S(=O)(=O)N[C@H]2CC[C@H](O)CC2)ccc1-c1ccc(F)cc1F [ABD735, reference compound] |  |  | > 25 | > 25 | > 25 | 25 | > 25 |
| C[C@]1(O)CC[C@@H](NS(=O)(=O)c2ccc(-c3cc(F)c(F)cc3F)cc2)CC1 [HMC-C-10-B, 2′,4′,5′-Trifluoro-N-((1s,4s)-4-hydroxy-4-methylcyclohexyl)-[1,1′-biphenyl]-4-sulfonamide] |  | 0.55 | 8.5 | > 16 | > 16 | 2.4 | 9.2 |
| C[C@]1(O)CC[C@H](NS(=O)(=O)c2ccc(-c3ccc(C#N)cc3)c(F)c2)CC1 [HMC-C-07-A, 4′-Cyano-2-fluoro-N-((1r,4r)-4-hydroxy-4-methylcyclohexyl)-[1,1′-biphenyl]-4-sulfonamide] |  |  | > 50 | > 50 | > 50 | > 50 | > 50 |
| O=S(=O)(N[C@H]1CC[C@H](O)CC1)c1ccc(-c2ccc(F)cc2F)cc1 [ABD599, reference compound] | 0.07 | 0.19 | > 25 | > 25 | 20.7 | 9.5 | > 25 |
| C[C@]1(O)CC[C@@H](NS(=O)(=O)c2ccc(-c3ccc(F)cc3F)cc2)CC1 [ABD899, reference compound] | 0.03 | 0.04 | 7.3 | > 25 | 45.3 | 3.9 | 21.6 |
| C[C@]1(O)CC[C@@H](NS(=O)(=O)c2ccc(-c3ccc(C#N)cc3)c(F)c2)CC1 [HMC-C-07-B, 4′-Cyano-2-fluoro-N-((1s,4s)-4-hydroxy-4-methylcyclohexyl)-[1,1′-biphenyl]-4-sulfonamide] |  | 0.018 | > 50 | > 50 | > 50 | > 50 | > 50 |
| C[C@]1(O)CC[C@H](NS(=O)(=O)c2ccc(-c3ccc(Cl)cc3C#N)c(Cl)c2)CC1 [HMC-C-11-A, 2,4′-Dichloro-2′-cyano-N-((1r,4r)-4-hydroxy-4-methylcyclohexyl)-[1,1′-biphenyl]-4-sulfonamide] |  | 0.26 | 5.1 | 11 | 9.3 | 2.7 | 12 |
